In the assay the target is T1, ubiquitin-specific protease 28 (USP28) (Homo sapiens, UniProt Q96RU2).
T1 construct: endogenous, NCI-H520 cell extracts and intact cells
T1 sequence (Q96RU2 1-1077): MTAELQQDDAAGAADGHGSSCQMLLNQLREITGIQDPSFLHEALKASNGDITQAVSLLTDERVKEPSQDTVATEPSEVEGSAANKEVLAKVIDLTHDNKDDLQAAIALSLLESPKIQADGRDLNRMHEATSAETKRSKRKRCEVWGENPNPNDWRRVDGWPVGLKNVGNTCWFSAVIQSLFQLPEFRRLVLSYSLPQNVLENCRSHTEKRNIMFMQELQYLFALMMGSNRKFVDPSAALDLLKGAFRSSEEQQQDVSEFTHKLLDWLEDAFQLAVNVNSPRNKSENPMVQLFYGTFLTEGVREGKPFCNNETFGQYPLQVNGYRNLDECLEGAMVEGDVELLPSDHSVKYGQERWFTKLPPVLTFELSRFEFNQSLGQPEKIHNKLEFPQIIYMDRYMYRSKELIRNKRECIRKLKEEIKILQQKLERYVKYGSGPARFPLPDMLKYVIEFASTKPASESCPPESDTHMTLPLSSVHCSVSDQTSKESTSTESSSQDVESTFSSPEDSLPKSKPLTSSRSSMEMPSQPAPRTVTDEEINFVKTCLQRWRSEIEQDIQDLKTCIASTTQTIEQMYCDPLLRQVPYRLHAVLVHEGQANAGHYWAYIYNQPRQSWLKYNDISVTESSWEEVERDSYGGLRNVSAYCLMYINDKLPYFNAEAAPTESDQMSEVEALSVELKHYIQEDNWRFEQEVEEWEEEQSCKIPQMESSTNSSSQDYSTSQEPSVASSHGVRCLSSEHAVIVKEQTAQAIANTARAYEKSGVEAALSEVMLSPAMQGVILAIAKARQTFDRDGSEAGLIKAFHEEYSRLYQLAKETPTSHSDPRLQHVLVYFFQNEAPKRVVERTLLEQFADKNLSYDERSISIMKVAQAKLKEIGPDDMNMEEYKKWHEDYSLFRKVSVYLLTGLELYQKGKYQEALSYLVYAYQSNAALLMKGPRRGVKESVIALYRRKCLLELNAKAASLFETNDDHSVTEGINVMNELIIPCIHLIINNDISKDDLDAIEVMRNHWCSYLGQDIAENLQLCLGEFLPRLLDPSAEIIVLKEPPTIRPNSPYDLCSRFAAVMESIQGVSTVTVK
In words: competition with HA-UbPA activity-based probe labelling (Western blot) in NCI-H520 extract and cells; ABPP mass spectrometry. Format: biochemical. In general terms: A western blot detects proteins with antibodies after separation by electrophoresis.

Compound `Cc1ccc2c(N)c(C(=O)N[C@H]3CCc4cc(N5CC6CCC(C5)N6)ccc4C3)sc2n1` [FT206] registered an EC50 of 300 to 1000 nM.

Broadly, the EC50 is the concentration that produces a half-maximal response. Lower therefore signals an effect from little substance.

Source of the values: PMC8553340, “USP28 deletion and small-molecule inhibition destabilizes c-MYC and elicits regression of squamous cell lung carcinoma” (eLife, 2021).
